# Test results from patent publication US20250115577A1, “BCL-2 Inhibitors” (Eil Therapeutics, Inc., priority 2021, published 2025).
# pEC50, pIC50: −log10 of the molar value.
# Assays:
# [1] = target: BCL-2 [G101V] (Homo sapiens (Human), UniProt P10415, G101V); assay: BCL-2 [G101V] TR-FRET Assay (primary PPI inhibition); type: binding; settings: 60 min incubation, read-out: BCL2[G101V] IC50
# Method: Example C. BCL-2 [G101V]TR-FRET Assay
# The following assay concentrations and times were used: 0.22 ng/μl of BCL-2 (SinoBiological, #10195-H08E1), 5 μL of 1:100 anti-His Tb-labeled donor, 5 μL of 1:100 Dye-labeled acceptor, 5 μL of 1:40 BCL-2 Peptide Ligand (BPS Bioscience, #50223), and 2 μL of 200× test compound, with 60 min incubation time (final concentration of DMSO 0.5%). The results of the assay were read using a plate reader with the following parameters: TR FRET, 340ex/620 and 665em; 60 usec Delay; and 500 usec integration.
# (§1) Instrumentation: CLARIOstar Plus (BMG LABTECH); Biomek FX for liquid handling (Beckman Coulter).
# [2] = target: BCL-2 (Homo sapiens (Human), UniProt P10415); assay: BCL-2 TR-FRET Assay (primary PPI inhibition); type: binding; settings: 60 min incubation, read-out: BCL2 IC50
# Method: Example A. BCL-2 TR-FRET Assay (BPS Bioscience, #50222)
# (§2) The following assay concentrations and times were used: 3 ng of BCL-2, 5 μL of 1:100 anti-His Tb-labeled donor, 5 μL of 1:100 Dye-labeled acceptor, 5 µL of 1:40 BCL-2 Peptide Ligand, and 2 μL of 200× test compound, with 60 min incubation time (final concentration of DMSO 0.5%). The results of the assay were read using a plate reader with the following parameters: TR FRET, 340ex/620 and 665em; 60 usec Delay; and 500 usec integration.
# as §1
# [3] = target: BCL-xL (Homo sapiens (Human), UniProt Q07817); assay: BCL-xL TR-FRET Assay (primary PPI inhibition); type: binding; settings: 60 min incubation, read-out: BCLxL IC50
# Method: Example B. BCL-xL TR-FRET Assay (BPS Bioscience, #50223)
# as §2, with “used: 10.5” for “used: 3”, “of BCL-xL,” for “of BCL-2,”, “of 1:120” for “of 1:100”, “5 μL” for “5 µL”, “of 1:96 BCL-xL” for “of 1:40 BCL-2”, “Ligand,” for “Ligand, and”
# as §1
# [4] = system: caspase-3 and -7 activities in RS4-11 cells; assay: Caspase-3/7 activation (Caspase-Glo 3/7) in RS4-11 cells; type: cell-based; settings: Homo sapiens, 3.5 h, read-out: Cas-3/7 EC50
# Method: Example E. Caspase-3/7 Activation
# Assay Principle: The Caspase-Glo 3/7 Assay is homogeneous, luminescent assay that measures caspase-3 and -7 activities. The assay provides a luminogenic caspase-3/7 substrate, which contains the tetrapeptide sequence DEVD, in a reagent optimized for caspase activity.
# Assay Procedure: Incubate RS4-11 (ATCC, CRL-1873) cells in the 384-well white plate (Corning, #3570) with varying concentrations of test compounds for 3.5 h in a humidified incubator at 37° C. and 5% CO2 […]. Add 15 μL of the Caspase-Glo (Promega, #8212) reagent to each well and to incubate the plate for 30 min at rt. Read on the CLARIOstar Plus (BMG LABTECH) instrument.
# as §1
# [5] = system: MOLT-4 cells; assay: Cell viability assay (CellTiter-Glo), MOLT-4; type: cell-based; settings: Homo sapiens, 72 h, 3 days of incubation
# Method: (§3) Example D. Cell Viability Assays (Cell lines HEK293, RS4-11, MOLT-4)
# (§4) Cells were seeded at a density of 4000 cells per well in the 384-well clear bottom plate (Greiner Cat #781090) to the 45 μL total volume of either DMEM (PanEco, Cat #C420, for HEK293) or RPMI (PanEco, Cat #C330, for other cell lines) with 10% FBS(HyClone Cat #SV30160.03). Prior to adding compounds, the HEK293 cells were allowed to adhere overnight at 37° C. and 5% CO2. The 500× compounds solutions in DMSO(Sigma Cat #D2650) were dispersed into a 384-well compound plate (Diamond Well Plate, Axigen, Cat #P-384-120 SQ-C—S) including only DMSO control. The 1 μL aliquots of the 500× compounds from the compound plate were added to 49 μL of culture medium in the Dilution plate (Diamond Well Plate, Axigen, Cat #P-384-120 SQ-C—S), mixed and then the 5 μL aliquts of the 10× compound solutions were transferred to cells followed by centrifugation at 100 g for 1 min. Final DMSO concentration was 0.2%. After 3 days of incubation the 10 μL aliquots of CellTiter-Glo (Promega, CAT #G7572) were added to the cells, plate was centrifuged at 100 g for 1 min and the luminescence was measured on the CLARIOstar Plus (BMG LABTECH) instrument.
# as §1
# [6] = Cell viability assay (CellTiter-Glo), HEK293; type: cell-based; settings: human, HEK293 cells, 3 days of incubation
# Method: as §3, §4, §1
# [7] = system: RS4-11 cells; assay: Cell viability assay (CellTiter-Glo), RS4-11; type: cell-based; settings: Homo sapiens, RS4-11, 72 h, 3 days of incubation
# Method: as §3, §4, §1
# Chain of BCL-xL (Q07817 whole entry): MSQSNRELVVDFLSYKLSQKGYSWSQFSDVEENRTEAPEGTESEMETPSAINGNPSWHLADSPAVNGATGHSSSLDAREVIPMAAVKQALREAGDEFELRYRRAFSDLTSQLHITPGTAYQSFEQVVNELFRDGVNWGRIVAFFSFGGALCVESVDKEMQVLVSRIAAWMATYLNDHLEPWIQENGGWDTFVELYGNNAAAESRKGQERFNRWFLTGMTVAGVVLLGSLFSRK
SMILES,pIC50 [1],pIC50 [2],pIC50 [3],pEC50 [4],CC50 [5],CC50 at 3 days [6],CC50 [7]
"N#Cc1ccccc1CN(C(=O)c1cc(-c2cc(Cl)ccc2C(=O)N2Cc3ccccc3C[C@H]2CN2CCOCC2)n2c1CCCC2)c1ccc(Cl)cc1 [Compound 1, 3-[5-chloro-2-[(3S)-3-(morpholinomethyl)-3,4-dihydro-1H-isoquinoline-2-carbonyl]phenyl]-N-(4-chlorophenyl)-N-[(2-cyanophenyl)methyl]-5,6,7,8-tetrahydroindolizine-1-carboxamide]",< 6.00,< 7.30,< 5.30,< 6.30,,,
"COc1cccc(CN(C(=O)c2cc(-c3cc(Cl)ccc3C(=O)N3Cc4ccccc4C[C@H]3CN3CCOCC3)n3c2CCCC3)c2ccc(Cl)cc2)c1C [Compound 2, 3-[5-chloro-2-[(3S)-3-(morpholinomethyl)-3,4-dihydro-1H-isoquinoline-2-carbonyl]phenyl]-N-(4-chlorophenyl)-N-[(3-methoxy-2-methyl-phenyl)methyl]-5,6,7,8-tetrahydroindolizine-1-carboxamide]",< 6.00,7.30 to 8.00,< 5.30,< 6.30,,,
"N#Cc1ccccc1CN(C(=O)c1cc(-c2cc(Cl)ccc2C(=O)N2Cc3ccccc3C[C@H]2CN2CCOCC2)n2c1CCCC2)c1ccc(O)cc1 [Compound 3, 3-[5-chloro-2-[(3S)-3-(morpholinomethyl)-3,4-dihydro-1H-isoquinoline-2-carbonyl]phenyl]-N-[(2-cyanophenyl)methyl]-N-(4-hydroxyphenyl)-5,6,7,8-tetrahydroindolizine-1-carboxamide]",≥ 7.00,≥ 8.30,< 5.30,6.30 to 6.70,≤ 5000 nM,10000 to 25000 nM,100 to 200 nM
"COc1cccc(CN(C(=O)c2cc(-c3cc(Cl)ccc3C(=O)N3Cc4ccccc4C[C@H]3CN3CCOCC3)n3c2CCCC3)c2ccc(O)cc2)c1C [Compound 4, 3-[5-chloro-2-[(3S)-3-(morpholinomethyl)-3,4-dihydro-1H-isoquinoline-2-carbonyl]phenyl]-N-(4-hydroxyphenyl)-N-[(3-methoxy-2-methyl-phenyl)methyl]-5,6,7,8-tetrahydroindolizine-1-carboxamide]",6.00 to 7.00,≥ 8.30,< 5.30,≥ 6.70,≤ 5000 nM,10000 to 25000 nM,≤ 100 nM
"Cc1c(C(=O)N(Cc2ccccc2C#N)c2ccc(O)cc2)cc(-c2cc(Cl)ccc2C(=O)N2Cc3ccccc3C[C@H]2CN2CCOCC2)n1C [Compound 6, 5-[5-chloro-2-[(3S)-3-(morpholinomethyl)-3,4-dihydro-1H-isoquinoline-2-carbonyl]phenyl]-N-[(2-cyanophenyl)methyl]-N-(4-hydroxyphenyl)-1,2-dimethyl-pyrrole-3-carboxamide]",≥ 7.00,≥ 8.30,≥ 5.70,6.30 to 6.70,5000 to 10000 nM,10000 to 25000 nM,100 to 200 nM
"COc1cccc(CN(C(=O)c2cc(-c3cc(Cl)ccc3C(=O)N3Cc4ccccc4C[C@H]3CN3CCOCC3)n(C)c2C)c2ccc(O)cc2)c1C [Compound 7, 5-[5-chloro-2-[(3S)-3-(morpholinomethyl)-3,4-dihydro-1H-isoquinoline-2-carbonyl]phenyl]-N-(4-hydroxyphenyl)-N-[(3-methoxy-2-methyl-phenyl)methyl]-1,2-dimethyl-pyrrole-3-carboxamide]",≥ 7.00,≥ 8.30,5.30 to 5.70,≥ 6.70,5000 to 10000 nM,10000 to 25000 nM,≤ 100 nM
"COc1cccc(CN(C(=O)c2cc(-c3cc(Cl)c(C#N)cc3C(=O)N3Cc4ccccc4C[C@H]3CN3CCOCC3)n(C)c2C)c2ccc(O)cc2)c1C [Compound 9, 5-[5-chloro-4-cyano-2-[(3S)-3-(morpholinomethyl)-3,4-dihydro-1H-isoquinoline-2-carbonyl]phenyl]-N-(4-hydroxyphenyl)-N-[(3-methoxy-2-methyl-phenyl)methyl]-1,2-dimethyl-pyrrole-3-carboxamide]",6.00 to 7.00,≥ 8.30,5.30 to 5.70,< 6.30,≤ 5000 nM,10000 to 25000 nM,> 200 nM
"COc1cc(C(=O)N2Cc3ccccc3C[C@H]2CN2CCOCC2)c(-c2cc(C(=O)N(Cc3cccc(OC)c3C)c3ccc(O)cc3)c(C)n2C)cc1Cl [Compound 11, 5-[5-chloro-4-methoxy-2-[(3S)-3-(morpholinomethyl)-3,4-dihydro-1H-isoquinoline-2-carbonyl]phenyl]-N-(4-hydroxyphenyl)-N-[(3-methoxy-2-methyl-phenyl)methyl]-1,2-dimethyl-pyrrole-3-carboxamide]",6.00 to 7.00,7.30 to 8.00,5.30 to 5.70,≥ 6.70,≤ 5000 nM,> 25000 nM,100 to 200 nM
"COc1cccc(CN(C(=O)c2cc(-c3cc(F)c(OC(F)F)cc3C(=O)N3Cc4ccccc4C[C@H]3CN3CCOCC3)n(C)c2C)c2ccc(O)cc2)c1C [Compound 16, 5-[4-(difluoromethoxy)-5-fluoro-2-[(3S)-3-(morpholinomethyl)-3,4-dihydro-1H-isoquinoline-2-carbonyl]phenyl]-N-(4-hydroxyphenyl)-N-[(3-methoxy-2-methyl-phenyl)methyl]-1,2-dimethyl-pyrrole-3-carboxamide]",< 6.00,8.00 to 8.30,5.30 to 5.70,6.30 to 6.70,≤ 5000 nM,> 25000 nM,> 200 nM
"COc1cccc(CN(C(=O)c2cc(-c3cc(NC(C)=O)ccc3C(=O)N3Cc4ccccc4C[C@H]3CN3CCOCC3)n(C)c2C)c2ccc(O)cc2)c1C [Compound 48, 5-[5-acetamido-2-[(3S)-3-(morpholinomethyl)-3,4-dihydro-1H-isoquinoline-2-carbonyl]phenyl]-N-(4-hydroxyphenyl)-N-[(3-methoxy-2-methyl-phenyl)methyl]-1,2-dimethyl-pyrrole-3-carboxamide]",6.00 to 7.00,8.00 to 8.30,5.30 to 5.70,,,,
"COc1cccc(CN(C(=O)c2cc(-c3cc(S(C)(=O)=O)ccc3C(=O)N3Cc4ccccc4C[C@H]3CN3CCOCC3)n(C)c2C)c2ccc(O)cc2)c1C [Compound 49, N-(4-hydroxyphenyl)-N-[(3-methoxy-2-methyl-phenyl)methyl]-1,2-dimethyl-5-[5-methylsulfonyl-2-[(3S)-3-(morpholinomethyl)-3,4-dihydro-1H-isoquinoline-2-carbonyl]phenyl]pyrrole-3-carboxamide]",≥ 7.00,≥ 8.30,5.30 to 5.70,,5000 to 10000 nM,> 25000 nM,≤ 100 nM
